Assays:
[1] = system: powdery mildew (Blumeria graminis f. sp. hordei); test: Curative greenhouse trial with Epoxiconazole on barley; type: in vivo; conditions: barley leaf segments (F and F-1) on benzimidazole agar, inoculation 2 days prior to application, Epoxiconazole 5 g/ha, adjuvant 50 ml/ha, assessment 14 DAT
Description: (§1) The influence of the adjuvants was tested separately in a curative and protective greenhouse trial on barley. In each case, barley was cultivated in a substrate “Frustorder Erde” for three weeks with three plants per pot. Each treatment was replicated 14 times. The adjuvant dose rate in each treatment was 50 ml/ha. The assessment of the infection rate was conducted by a trained biologist.
(§2) The adjuvants used in the trials are di-isononanyl-adipate cyclohexanedicarboxylic acid-isononanol-diester, 1,2-cyclohexanediol-di-isononate, di-isononanyl-3EO-adipate, cyclohexanedicarboxylic acid-isononanol-3EO-diester and 1,2-cyclohexanediol-6EO-di-isononate.
An Epoxiconazole SC 250 was used. Inoculation of the leaves with powdery mildew (Blumeria graminis f. sp. hordei) was done 2 days prior to application of the Epoxiconazole formulation. From the stem, 15 leaf segments were cut off with a length of 10 cm using each the flag leaf (F) and the 2nd leaf (F-1). Altogether, the leaves of each were placed on benzimidazole agar i.e. 0.5% Agar with 40 ppm benzimidazole. The concentration of Epoxiconazole for the leaf application was 5 g/ha. Assessment was done 14 days after treatment (14 DAT) of the efficacy against powdery mildew by counting the mildew pustules per leaf on a length of 7 cm.

[2] = system: powdery mildew (Blumeria graminis f. sp. hordei); test: Protective greenhouse trial with Azoxystrobin on barley; type: in vivo; conditions: barley leaf segments (F and F-1) on agar cut 4 h after application, then inoculated, Azoxystrobin 5 g/ha, adjuvant 50 ml/ha, incubation time 10 d
Description: as §1, §2
4 h after application with the equivalent of 5 g/ha Azoxystrobin, leaf segments were cut off at a length of 7 cm from the stem. 15 leaves of each the F and the F-1 leaf were placed on agar. After the inoculation with powdery mildew (Blumeria graminis f. sp. hordei), the incubation time was 10 d. The assessment of the infection rate was conducted by a trained biologist.

Structure (SMILES) | Powdery mildew infestation (%) [1] [%] | Powdery mildew infestation (%) [2] [%]
Fc1ccc([C@]2(Cn3cncn3)O[C@H]2c2ccccc2Cl)cc1 (racemic) [Epoxiconazole] | 33 | –
CO/C=C(/C(=O)OC)c1ccccc1Oc1cc(Oc2ccccc2C#N)ncn1 [Azoxystrobin] | – | 36

From US10757935B2, “Composition comprising a pesticide and an alkoxylated ester” (BASF SE, priority 2015, dated 2020)
